# Experimental data as given in ChEMBL document CHEMBL1201862, “PubChem BioAssay data set” (2004).
#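 A five-concentration, 48-hour dose response in 96-well plates underlies each endpoint, interpolated linearly between surrounding concentrations. At the GI50, growth is halved.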 The source made the active and inactive calls. No stated cut-off is given here; in the data, active = GI50 up to about 1.1 µM and inactive = higher.
# Columns and labels:
# Assay in all cases: NCI anticancer screen, dose series, 48 h
# SNB-75 = test system: SNB-75
# COLO 205 = test system: COLO 205
# HCT-116 = test system: HCT-116
# 786-0 = test system: 786-0
# UO-31 = test system: UO-31
# SW-620 = test system: SW-620
# UACC-62 = test system: UACC-62
# HOP-62 = test system: HOP-62
# RXF 393 = test system: RXF 393
# M14 = test system: M14
# MDA-N = test system: MDA-N
# MDA-MB-435 = test system: MDA-MB-435
# MDA-MB-231 = test system: MDA-MB-231
# SK-OV-3 = test system: SK-OV-3
# BT-549 = test system: BT-549
# HCT-15 = test system: HCT-15
# NCI-H226 = test system: NCI-H226
# HT-29 = test system: HT-29
# OVCAR-5 = test system: OVCAR-5
# SR = test system: SR
SMILES,GI50 (SNB-75),GI50 (COLO 205),GI50 (HCT-116),GI50 (786-0),GI50 (UO-31),GI50 (SW-620),GI50 (UACC-62),GI50 (HOP-62),GI50 (RXF 393),GI50 (M14),GI50 (MDA-N),GI50 (MDA-MB-435),GI50 (MDA-MB-231),GI50 (SK-OV-3),GI50 (BT-549),GI50 (HCT-15),GI50 (NCI-H226),GI50 (HT-29),GI50 (OVCAR-5),GI50 (SR)
Nc1c(OCC(=O)O)ccc2cc(S(=O)(=O)O)ccc12,> 100 µM (inactive),> 100 µM (inactive),> 100 µM (inactive),> 100 µM (inactive),> 100 µM (inactive),> 100 µM (inactive),> 100 µM (inactive),> 100 µM (inactive),> 100 µM (inactive),> 100 µM (inactive),> 100 µM (inactive),> 100 µM (inactive),> 100 µM (inactive),> 100 µM (inactive),> 100 µM (inactive),> 100 µM,> 100 µM (inactive),–,–,–
COc1ccc2c(c1O)[C@@]13CCCC=C1[C@@H](C2)[N+](C)(C)CC3,77.6 µM (inactive),43.6 µM (inactive),> 100 µM (inactive),> 100 µM (inactive),> 100 µM (inactive),> 100 µM (inactive),> 100 µM (inactive),> 100 µM (inactive),> 100 µM (inactive),> 100 µM (inactive),> 100 µM (inactive),> 100 µM (inactive),> 100 µM (inactive),> 100 µM (inactive),46.7 µM (inactive),> 100 µM,> 100 µM (inactive),> 100 µM (inactive),> 100 µM (inactive),–
COc1cc(/C=C2\C(=O)N(c3ccc(Cl)cc3)C(c3ccccc3)S2(=O)=O)cc(OC)c1OC (stereo not given),53.8 µM (inactive),1.99 µM (inactive),3.37 µM (inactive),39.4 µM (inactive),3.48 µM (inactive),32.2 µM (inactive),2.19 µM (inactive),> 34.5 µM (inactive),22.4 µM (inactive),0.522 µM (active),2.04 µM (inactive),0.394 µM (active),> 69.3 µM (inactive),14 µM (inactive),14.3 µM (inactive),1.03 µM,> 84.1 µM (inactive),42.5 µM (inactive),9.04 µM (inactive),–
CC1(C)C(=O)C=CC2(C)C1CC(O)C1(C)C2CCC2(C)C(c3ccoc3)OC(=O)C3OC321 (stereo not given),15.9 µM (inactive),21.5 µM (inactive),15.3 µM (inactive),12.2 µM (inactive),11.4 µM (inactive),19.8 µM (inactive),12.6 µM (inactive),24.4 µM (inactive),15 µM (inactive),32 µM (inactive),18.1 µM (inactive),23.7 µM (inactive),15.8 µM (inactive),23.7 µM (inactive),18.7 µM (inactive),10.6 µM,14.2 µM (inactive),17.1 µM (inactive),32.3 µM (inactive),–
CC1(C)OC[C@@H]([C@H](O)C2C=CC(=O)S2)O1 (stereo not given in full),45.5 µM (inactive),17.9 µM (inactive),14.3 µM (inactive),22.9 µM (inactive),20.8 µM (inactive),32 µM (inactive),14.6 µM (inactive),47.9 µM (inactive),15 µM (inactive),44.3 µM (inactive),22.1 µM (inactive),37.8 µM (inactive),30.8 µM (inactive),34.6 µM (inactive),17.9 µM (inactive),19.8 µM,27.5 µM (inactive),23.6 µM (inactive),63.7 µM (inactive),–
C[C@@H]1CC(=O)C[C@@H]2CC[C@H]3[C@@H]4CC[C@H](OC(=O)c5cccc6cc7ccccc7nc56)[C@H]4CC[C@@H]3[C@H]21,15.6 µM (inactive),22.2 µM (inactive),14.1 µM (inactive),11.4 µM (inactive),16.9 µM (inactive),17.4 µM (inactive),13.3 µM (inactive),22.8 µM (inactive),18.1 µM (inactive),15.5 µM (inactive),13.5 µM (inactive),15.8 µM (inactive),15.9 µM (inactive),25.2 µM (inactive),26.1 µM (inactive),14.2 µM,26.5 µM (inactive),15.8 µM (inactive),18.8 µM (inactive),–
Cc1ccc(C)n1-c1ccccc1C1C=Cn2c3c1c(=O)c(OC(C)C)c(OC(C)C)c-3n[nH]c2=O (stereo not given),25.4 µM (inactive),13.1 µM (inactive),19.2 µM (inactive),20.9 µM (inactive),64.3 µM (inactive),18.3 µM (inactive),39.4 µM (inactive),40 µM (inactive),23 µM (inactive),25.1 µM (inactive),37.6 µM (inactive),21.8 µM (inactive),33.6 µM (inactive),> 100 µM (inactive),32.7 µM (inactive),21.7 µM,21.4 µM (inactive),19.9 µM (inactive),> 100 µM (inactive),–
C[C@H]1[C@H]2[C@H]3CC[C@@H]4[C@@]5(C)CC[C@H](O)C(C)(C)[C@@H]5CC[C@@]4(C)[C@]3(C)C[C@H](O)[C@@]2(C)C[C@H]2O[C@]21C,–,24 µM (inactive),16.1 µM (inactive),19.5 µM (inactive),–,24 µM (inactive),23.2 µM (inactive),20.7 µM (inactive),16.7 µM (inactive),25.5 µM (inactive),18.9 µM (inactive),18.9 µM (inactive),18 µM (inactive),14.7 µM (inactive),20.4 µM (inactive),20.1 µM,–,14.3 µM (inactive),24.6 µM (inactive),–
O=C(c1cccc2ccccc12)C1S(=O)(=O)OCCOS1(=O)=O,–,> 100 µM (inactive),> 100 µM (inactive),> 100 µM (inactive),> 100 µM (inactive),–,–,> 100 µM (inactive),–,> 100 µM (inactive),> 100 µM (inactive),> 10 µM (inactive),> 100 µM (inactive),–,> 100 µM (inactive),> 100 µM,–,> 100 µM (inactive),> 100 µM (inactive),> 100 µM (inactive)
COc1cc(C2SC(=N)Nc3c2c(C)nn3C(=O)c2ccccc2O)ccc1O (stereo not given),1.04 µM (active),> 5.55 µM (inactive),–,> 2.33 µM (inactive),9.31 µM (inactive),> 4.71 µM (inactive),1.15 µM (inactive),> 2.61 µM (inactive),1.52 µM (inactive),> 2.85 µM (inactive),1.75 µM (inactive),1.54 µM (inactive),> 3.98 µM (inactive),> 2.17 µM (inactive),> 2.63 µM (inactive),> 2.31 µM,> 2.25 µM (inactive),> 6.38 µM (inactive),> 5.53 µM (inactive),–
CC1(C)CCC2=C(O1)/C(=N\Nc1ccccc1)c1ccccc1C2=O,–,31.8 µM (inactive),16.9 µM (inactive),15.8 µM (inactive),17.8 µM (inactive),> 100 µM (inactive),34.6 µM (inactive),35.4 µM (inactive),16.6 µM (inactive),31.5 µM (inactive),16.1 µM (inactive),30.8 µM (inactive),25.4 µM (inactive),24.9 µM (inactive),35.4 µM (inactive),29.6 µM,39.9 µM (inactive),15.9 µM (inactive),31.3 µM (inactive),–
O=[N+]([O-])/C(C(Cl)=C(Cl)Cl)=C(\NCc1ccccc1)Sc1ccccc1,28.2 µM (inactive),18.7 µM (inactive),32.4 µM (inactive),35.1 µM (inactive),17.2 µM (inactive),18.4 µM (inactive),30.4 µM (inactive),24 µM (inactive),–,32.8 µM (inactive),31.7 µM (inactive),19.4 µM (inactive),40.7 µM (inactive),34 µM (inactive),17.3 µM (inactive),17.3 µM,27.8 µM (inactive),38.9 µM (inactive),47 µM (inactive),–
O=C1/C(=C/c2ccc(Cl)cc2)N=C(c2ccccc2)N1c1nc2ccc(Sc3ccccc3)cc2[nH]1,15.8 µM (inactive),19.7 µM (inactive),24.2 µM (inactive),25.9 µM (inactive),34.8 µM (inactive),23.7 µM (inactive),14 µM (inactive),40.3 µM (inactive),26.3 µM (inactive),16.3 µM (inactive),10.6 µM (inactive),10.2 µM (inactive),35.2 µM (inactive),41.4 µM (inactive),21.7 µM (inactive),29.2 µM,–,19.1 µM (inactive),25.6 µM (inactive),–
C=CCN(C(=O)OC(C)(C)C)C1=CC2C(C)=CN(S(=O)(=O)c3ccccc3)C2C(OCc2ccccc2)=C1 (stereo not given),6.18 µM (inactive),> 100 µM (inactive),54 µM (inactive),> 100 µM (inactive),> 100 µM (inactive),> 100 µM (inactive),> 100 µM (inactive),> 100 µM (inactive),36.1 µM (inactive),> 100 µM (inactive),> 100 µM (inactive),> 100 µM (inactive),> 100 µM (inactive),> 100 µM (inactive),> 100 µM (inactive),> 100 µM,> 100 µM (inactive),13.4 µM (inactive),> 100 µM (inactive),–
CC1(C)CC(=O)C(=CN2C(=O)CNC2=S)C(=O)C1,> 100 µM (inactive),> 100 µM (inactive),> 100 µM (inactive),> 100 µM (inactive),> 100 µM (inactive),> 100 µM (inactive),> 100 µM (inactive),> 100 µM (inactive),85.9 µM (inactive),> 100 µM (inactive),> 100 µM (inactive),> 100 µM (inactive),> 100 µM (inactive),> 100 µM (inactive),> 100 µM (inactive),> 100 µM,> 100 µM (inactive),–,> 100 µM (inactive),–
